# According to US9295679B2, “Prodrugs of C-17-heteroaryl steroidal CYP17 inhibitors/antiandrogens: synthesis, in vitro biological activities, pharmacokinetics and antitumor activity” (University of Maryland, Baltimore, priority 2008, dated 2016):
# “Also recorded” adds a separate entry of the source.
# How the values were obtained:
# PC-3 = test: MTT cell viability assay, PC-3; type: cell-based; conditions: for GI90 / GI50: MTT, 96 hours exposure
# Protocol: Cells were grown as a monolayer in a humidified incubator (5% CO2) at 37° C. To determine the effect of the compounds on cell proliferation, cells were plated (2500 cells/well) in 96-well cell culture dishes (Corning, Inc. Corning, N.Y.). […] The cells were then allowed to grow in the presence of the drugs for 96 hours. […] Experiments were carried out three times with six replicates per dose per experiment (n=18). […] Combination index (CI) was calculated as previously described^44. CI values less than 1 are considered synergistic.
# DU-145 = test: MTT cell viability assay, DU-145; type: cell-based; conditions: for GI90 / GI50: DU-145, MTT, 96 hours exposure
# Protocol: (§1) All cell lines were obtained from American Type Culture Collection (Rockville, Md.) and maintained in RPMI 1640 media supplemented with 10% fetal bovine serum and 5% penicillin/streptomycin solution. Cells were grown as a monolayer in a humidified incubator (5% CO2) at 37° C. To determine the effect of the compounds on cell proliferation, cells were plated (2500 cells/well) in 96-well cell culture dishes (Corning, Inc. Corning, N.Y.). After a 24 hr attachment period, media was replaced with fresh media containing compounds (0.01 μM-100 μM) or vehicle (95% ethanol). The cells were then allowed to grow in the presence of the drugs for 96 hours. After 96 hours, relative cell viability was assessed using the MTT reagent (3-(4,5-dimethylthiazol-2-yl)-2,5-diphenyltetrazolium bromide) as described in Patel, et al. 2004^43. Experiments were carried out three times with six replicates per dose per experiment (n=18). Results were plotted using the average of each dose over all three experiments and fitted with a best-fit sigmoidal dose response variable slope curve using GraphPad Prism 4.01 (GraphPad Software, Inc.). […] Combination index (CI) was calculated as previously described^44. CI values less than 1 are considered synergistic.
# [1] = given clinically as the prodrug abiraterone acetate; cited from earlier work
# LNCaP = test: MTT cell viability assay, LNCaP; type: cell-based, human; conditions: 96 hours exposure; for GI50: Homo sapiens
# Protocol: as §1
# [2] = test system: androgen-dependent LAPC4 human prostate tumor xenograft; conditions: cited from earlier work
# PC-3 cells [3] = test: Real-time PCR (qRT-PCR) of stress response and cell cycle genes in PC-3 cells; type: cell-based; conditions: 20 μM, 24 hr
# Protocol: Cells were treated, lysed and RNA collected and quantified using the same method outlined above. Cells were dosed independently on three separate days (n=3). 1 μg of total RNA was converted to cDNA using ReactionReady™ First Strand cDNA Synthesis kit (SuperArray Bioscience Corp.; Frederick, Md.) following the manufacturer's protocol. 50 ng of template cDNA was then used in subsequent real-time PCR (qRT-PCR) reactions. Template was combined with target gene specific or β-actin control RT^2 PCR Primer Sets, RT^2 Real-Time™ SYBR Green/Rox Master Mix (SuperArray Bioscience Corp.), and ddH2O for a final reaction volume of 25 μL and run on a 7900HT Fast Real-Time PCR system (Applied Biosystems; Foster City, Calif.) following the manufacturer's protocol. Fold changes were calculated using the ΔΔCt method as recommended by the manufacture's protocol.
# [4] = mice, s.c. 50 mg/kg, cited from earlier work
# [5] = Oral bioavailability in rat; conditions: in vivo
# PC-3 cells [6] = test: Cell cycle analysis by flow cytometry in synchronized PC-3 cells; type: cell-based; conditions: 20 μM
# Protocol: Cells were synchronized in the G1/G0 phase by maintaining them in 0.2% FBS-containing media for 96 hours. After starvation, media was replaced with normal growth media (10% FBS) containing vehicle (95% ethanol) or 20 μM VN/124-1 for 12, 18, and 24 hours. At each timepoint, cells were fixed in 70% ethanol at −20° C. for at least 24 hours. Fixed cells were then incubated with 1 mL propidium iodide (PI) staining buffer (1 mg/ml PI, 0.1% Triton-X, and 10 μg/ml RNase A dissolved in PBS) for 1 hour at room temperature and DNA content was measured by flow cytometry analysis using a FACSort flow cytometer (Becton Dickinson, San Jose, Calif.); 15,000 events were analyzed for each sample. ModFit LT version 3.1 (Verity Software House Ind., ME) was used to analyze cell cycle distribution.
# PC-3 cells [7] = test: Microarray global gene expression in PC-3 cells; type: cell-based; conditions: 20 μM, 24 hrs
# Protocol: After 24 hour exposure to the agent, total RNA was isolated using the Qiagen RNeasy-Mini Kit following the manufacturer's protocol. Experiments were carried out in duplicate, with triplicate samples (dosed independently on 3 different days) from each experiment pooled for analysis on a single chip. Samples were hybridized to a GeneChip® Human Genome Focus Array (Affymetrix Inc., U.S.A.) and analyzed using an Affymetrix Genechip® Scanner 3000 according to the manufacturer's protocol. Gene ontologies were identified using the online Database for Annotation, Visualization, and Integrated Discovery (DAVID) provided by the National Institute of Allergy and Infectious Diseases and the National Institute of Health. […] Stringent criteria of a minimum EASE/P-Value threshold of 0.001 and a gene count threshold of 5 were used to identify altered gene ontologies.
# PC-3 cells [8] = test: Absolute [Ca2+]i in PC-3 cells (Fura-2AM); type: cell-based; conditions: for average [Ca2+]i: Fura-2AM, control 36.49 nM
# Protocol: (§2) PC-3 Cells were loaded with either fura-2 or fluo-3 indicator by incubation with 2 μM fura-2/AM or 2 μM fluo-3/AM in RPMI 1640 medium containing 10% fetal bovine serum for >60 min at room temperature. During experiments, the coverslips were mounted in a flow chamber and superfused with oxygenated Locke solution containing (in mM): 10 glucose, 136 NaCl, 5.6 KCl, 1.2 NaH2PO4, 14.3 NaHCO3, 1.2 MgCl2, and 2.2 CaCl2, pH 7.4, at room temperature (22-24° C.).
# (§3) Cells loaded with fura-2 were placed in a perfusion chamber mounted on an inverted microscope (TE200; Nikon, Tokyo, Japan) equipped with a UV-transmitting objective (SuperFluor, 40×, N.A. 1.4, Nikon). Fura-2 was alternately excited by 340 nm and 380 nm light from monochrometers (Deltascan Illumination System, Photonic Technology International (PTI), South Brunswick, N.J.) and fura-2 emission was passed through a 515 nm longpass filter before detection by a cooled CCD camera (Retiga 2000R, Q-Imaging, Burnaby, Canada). For measurement of Ca^2+ transients in individual cells, coverslips with fluo-3 loaded cells were excited by the output of a 100 W mercury arc lamp that passed through a 480 nm bandpass filter (30 nm bandwidth). Fluorescence emission was passed through a 515 nm longpass filter before capture by a cooled CCD camera (Retiga 2000R, Q-Imaging). Image acquisition was performed with QCapture Pro (Q-Imaging) and analysis was performed with ImageJ (U.S. National Institutes of Health, Bethesda, Md., USA).
# Fluo-3 Ca^2+ indicator measurements are reported as the fractional change in fluorescence intensity relative to baseline (ΔF/F0), which was determined as follows. Within a temporal sequence of fluorescence images, a region of interest (ROI) was drawn around each cell to be analyzed. The fluorescence signal from each cell was calculated as the pixel-averaged intensity within each ROI. In these experiments, a slight downward drift in baseline was typically observed, which was principally attributable to photo-bleaching of the indicator. In such cases, the drift was always well fit by a low-amplitude single-exponential decay. The fitted baseline value (F0) at every time point was then used to calculate ΔF/F0. ΔF/F0 values are reported as mean±SE. For fura-2 measurements, [Ca^2+]i was derived using the ratio method of Grynkiewicz et al.^46
# PC-3 cells [9] = test: Western blot of ERSR related proteins in PC-3 cells; type: cell-based
# Protocol: Protein was isolated, subjected to SDS-PAGE, transferred and imaged as previously described^45. All primary antibodies were purchased from Cell Signaling (Danvers, Mass.). Quantitation of relative protein expression was determined via densitometry using the software ImageQuant 5.0 (Molecular Dynamics) with each protein normalized to its respective loading control. Results represent the average of at least three independent experiments, with representative blots shown.
# PC-3 cells [10] = test: Ca2+ transients in PC-3 cells (Fluo-3AM); type: cell-based; conditions: 20 μM; for transient rise in [Ca2+]i, mean ΔF/Fo: Fluo-3AM
# Protocol: as §2, §3
# Fluo-3 Ca^2+ indicator measurements are reported as the fractional change in fluorescence intensity relative to baseline (ΔF/F0), which was determined as follows. Within a temporal sequence of fluorescence images, a region of interest (ROI) was drawn around each cell to be analyzed. The fluorescence signal from each cell was calculated as the pixel-averaged intensity within each ROI. In these experiments, a slight downward drift in baseline was typically observed, which was principally attributable to photo-bleaching of the indicator. […]
structure (smiles),measurement,setting,value
"C[C@]12CC[C@H](O)CC1=CC[C@@H]1[C@@H]2CC[C@]2(C)C(c3cccnc3)=CC[C@@H]12 [Abiraterone, abiraterone, reference compound]",GI90,PC-3,>100 µM
same,GI90,DU-145,>100 µM
same,peak plasma concentrations,[1],below 1 μM
same,GI90,LNCaP,25.12 µM
"C[C@]12CC[C@H](O)CC1=CC[C@@H]1[C@@H]2CC[C@]2(C)C(n3cnc4ccccc43)=CC[C@@H]12 [Compound 5, 3β-hydroxy-17-(1H-benzimidazole-1-yl)androsta-5,16-diene]",reduction in the mean final tumor volume compared with controls,"[2]; 50 mg/kg/twice daily, P=0.00065",93.8%
same,effect on growth of LAPC4 tumor xenograft,[2]; Compound 6 at 0.15 mmol/kg twice daily,very effective; also recorded: marked suppression
same,CHOP gene expression,PC-3 cells [3],strongly up-regulated
same,activating transcription factor 4 (ATF4) gene expression,PC-3 cells [3],up-regulated
same,asparagines synthetase (ASNS) gene expression,PC-3 cells [3],up-regulated
same,cyclin D1 mRNA levels,PC-3 cells [3],not affected
same,cyclin E2 mRNA,PC-3 cells [3],significantly reduced
same,GI50,PC-3; Homo sapiens,7.82 µM
same,GI90,PC-3,18.62 µM
same,GI90,DU-145,15.95 µM
same,GI50,DU-145; Homo sapiens,7.55 µM
same,detectability in plasma at 8 hours,[4],neither was detectable
same,peak plasma levels,[4],16.82 ng/mL
same,bioavailability,[5],~10%
same,exit from G1 phase of the cell cycle,PC-3 cells [6],prevent the exit from G1 phase
same,down-regulated gene ontologies,PC-3 cells [7],"associated with the cell cycle, especially S-phase (DNA replication)"
same,most enriched up-regulated gene ontologies,PC-3 cells [7],"those relating to stress and metabolism, in particular amino acid metabolism"
same,S100P calcium binding protein gene expression,PC-3 cells [7]; validated by qRT-PCR,most highly up-regulated gene
same,effect on [Ca2+]i,"PC-3 cells [8]; 1 μM Compound 5, 2 hours",did not have a significant effect
same,average [Ca2+]i,"PC-3 cells [8]; 5 μM, 2 hours",79.13 nM
same,average [Ca2+]i,"PC-3 cells [8]; 10 μM, 2 hours",96.63 nM
same,average [Ca2+]i,"PC-3 cells [8]; 20 μM, 2 hours",79.89 nM
same,phosphorylation of eIF2α,"PC-3 cells [9]; 20 μM, 6 and 24 hours, PC-3",induced the phosphorylation of eIF2α
same,cyclin D1 protein,"PC-3 cells [9]; PC-3, after 24 hrs",down-regulation of cyclin D1 protein significantly
same,GI90,LNCaP,31.99 µM
same,GI50,LNCaP,3.15 µM
same,"transient rise in [Ca2+]i, mean ΔF/Fo",PC-3 cells [10]; extracellular calcium present,0.613
same,"transient rise in [Ca2+]i, mean ΔF/Fo",PC-3 cells [10]; extracellular calcium removed,0.967
same,Ca2+ transient after depletion of ER calcium stores,PC-3 cells [10]; pretreatment with SERCA inhibitor CPA,completely abolished
"C[C@]12CCC(=O)C=C1CC[C@@H]1[C@@H]2CC[C@]2(C)C(n3cnc4ccccc43)=CC[C@@H]12 [Compound 6, 17-(1H-benzimidazole-1-yl)androsta-4,16-diene-3-one]",GI90,PC-3,8.07 µM
same,GI90,DU-145,15.53 µM
same,terminal half-lives,[4]; plasma,39.93 min
same,detectability in plasma at 8 hours,[4],neither was detectable
same,peak plasma levels,[4],5.15 ng/mL
same,GI90,LNCaP,13.46 µM
"C[C@]12CC[C@H](O)CC1=CC[C@@H]1[C@@H]2CC[C@]2(C)C(n3cncn3)=CC[C@@H]12 [Compound 16, 3β-Hydroxy-17-(1H-1,2,4-triazol-1-yl)androsta-5,16-diene]",GI50,PC-3; Homo sapiens,2.91 µM
same,GI90,PC-3,>100 µM
same,GI90,DU-145,>100 µM
same,GI50,DU-145; Homo sapiens,11 µM
same,GI90,LNCaP,>100 µM
same,GI50,LNCaP,1.05 µM
"C[C@]12CC[C@H](O)CC1=CC[C@@H]1[C@@H]2CC[C@]2(C)C(n3ccnc3)=CC[C@@H]12 [Compound 17, 3β-Hydroxy-17-(1H-imidazol-1-yl)androsta-5,16-diene]",GI50,PC-3; Homo sapiens,1.86 µM
same,GI90,PC-3,30.41 µM
same,GI90,DU-145,31.62 µM
same,GI50,DU-145; Homo sapiens,5.31 µM
same,GI90,LNCaP,36.49 µM
same,GI50,LNCaP,2.47 µM
"C[C@]12CC[C@H](O)CC1=CC[C@@H]1[C@@H]2CC[C@]2(C)C(=O)CC[C@@H]12 [DHEA, dihydroandrosterone, reference compound]",fold less potent than Compound 5 in inhibiting PC-3 cells,PC-3,~10 fold
same,GI50,PC-3,67.6 µM
same,GI90,PC-3,>100 µM
same,GI50,DU-145,> 100 µM
same,growth inhibitory activity against DU-145 cells,DU-145; up to 100 μM,lacked any growth inhibitory activity
same,effect on [Ca2+]i,"PC-3 cells [8]; 20 μM DHA, 2 hours",did not have a significant effect
same,effect on the protein markers measured,"PC-3 cells [9]; 20 μM DHA, PC-3",no significant effect
